{"source": "PubChem BioAssay AID330", "about": "(DTP/NCI, 2004)", "test_system": "P388 leukemia ip, CD2F1 mice, survival T/C", "assay": "NCI In Vivo Anticancer Drug Screen. Data for tumor model P388 Leukemia (intraperitoneal) in CD2F1 (CDF1) mice", "settings": "endpoint: median survival time, higher = longer survival", "outline": "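Mice carrying the transplanted tumor received test compound or vehicle. Survival was recorded in each group, and the value is the treated-group measurement divided by that of the vehicle-treated control group.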", "key": {"[1]": {"settings": "dose: 25.0 mg/kg/injection, schedule: Q01DX005 (ip), vehicle: saline with Tween-80"}, "[2]": {"settings": "dose: 50.0 mg/kg/injection, schedule: Q01DX005 (ip), vehicle: saline with Tween-80"}, "[3]": {"settings": "dose: 100.0 mg/kg/injection, schedule: Q01DX005 (ip), vehicle: saline with Tween-80"}, "[4]": {"settings": "dose: 50.0 mg/kg/injection, schedule: Q01DX009 (ip), vehicle: saline with Tween-80"}, "[5]": {"settings": "dose: 100.0 mg/kg/injection, schedule: Q01DX009 (ip), vehicle: saline with Tween-80"}, "[6]": {"settings": "dose: 100.0 mg/kg/injection, schedule: Q04DX003 (ip), vehicle: saline with Tween-80"}, "[7]": {"settings": "dose: 200.0 mg/kg/injection, schedule: Q01DX005 (ip), vehicle: saline with Tween-80"}}, "note": "“And” between values parts separate entries of the source, which are not always exact repeats. Identical values can stand only once. Inconclusive results and toxic doses are left out."}
{"compound": "Nc1ccccc1N=C(CC(=O)c1ccccc1)C(F)(F)F", "values": [{"measurement": "T/C", "setting": "dose: 100.0 mg/kg/injection, schedule: Q04DX002 (ip), vehicle: saline", "value": "99 % of control"}, {"measurement": "T/C", "setting": "dose: 200.0 mg/kg/injection, schedule: Q04DX002 (ip), vehicle: saline", "value": "101 % of control"}, {"measurement": "T/C", "setting": "dose: 400.0 mg/kg/injection, schedule: Q04DX002 (ip), vehicle: saline", "value": "97 % of control"}]}
{"compound": "CN1CCC(c2ccccc2)(C(O)(c2ccccc2)c2ccccc2)CC1", "values": [{"measurement": "T/C", "setting": "dose: 12.5 mg/kg/injection, schedule: Q01DX005 (ip), vehicle: saline with Tween-80", "value": "90 % of control"}, {"measurement": "T/C", "setting": "[1]", "value": "100 % of control"}, {"measurement": "T/C", "setting": "[2]", "value": "100 % of control and 111 % of control"}, {"measurement": "T/C", "setting": "[3]", "value": "107 % of control"}]}
{"compound": "Cc1cc(NCCN(C(C)C)C(C)C)nc(/N=C(\\N)Nc2ccc(Cl)c(C(F)(F)F)c2)n1", "values": [{"measurement": "T/C", "setting": "dose: 10.0 mg/kg/injection, schedule: Q04DX003 (ip), vehicle: Klucel (hydroxypropylcellulose) (HPC)", "value": "107 % of control and 123 % of control"}, {"measurement": "T/C", "setting": "dose: 20.0 mg/kg/injection, schedule: Q04DX003 (ip), vehicle: Klucel (hydroxypropylcellulose) (HPC)", "value": "123 % of control"}]}
{"compound": "Cc1ccc2nc3[nH]c(=O)[nH]c(=O)c3c(N)c2c1", "values": [{"measurement": "T/C", "setting": "dose: 50.0 mg/kg/injection, schedule: Q01DX005 (ip), vehicle: Klucel (hydroxypropylcellulose) (HPC)", "value": "101 % of control"}, {"measurement": "T/C", "setting": "dose: 100.0 mg/kg/injection, schedule: Q01DX005 (ip), vehicle: Klucel (hydroxypropylcellulose) (HPC)", "value": "104 % of control"}, {"measurement": "T/C", "setting": "dose: 200.0 mg/kg/injection, schedule: Q01DX005 (ip), vehicle: Klucel (hydroxypropylcellulose) (HPC)", "value": "102 % of control"}]}
{"compound": "CCCCC(C)C(=O)/C=C/c1ccc(Cl)c(Cl)c1", "note": "(stereo unspecified)", "values": [{"measurement": "T/C", "setting": "[4]", "value": "105 % of control"}, {"measurement": "T/C", "setting": "[5]", "value": "100 % of control"}, {"measurement": "T/C", "setting": "dose: 200.0 mg/kg/injection, schedule: Q01DX009 (ip), vehicle: saline with Tween-80", "value": "106 % of control"}]}
{"compound": "COC(=O)c1cccc2cccc(C(=O)N(C)CCN(C)C)c12", "values": [{"measurement": "T/C", "setting": "dose: 60.0 mg/kg/injection, schedule: Q01DX005 (ip), vehicle: saline with Tween-80", "value": "97 % of control"}, {"measurement": "T/C", "setting": "dose: 120.0 mg/kg/injection, schedule: Q01DX005 (ip), vehicle: saline with Tween-80", "value": "95 % of control"}]}
{"compound": "CCOC(=O)C(CC(C)C)NC(C)=O", "note": "(stereo unspecified)", "values": [{"measurement": "T/C", "setting": "dose: 100.0 mg/kg/injection, schedule: Q04DX002 (ip), vehicle: saline with Tween-80", "value": "100 % of control"}, {"measurement": "T/C", "setting": "dose: 200.0 mg/kg/injection, schedule: Q04DX002 (ip), vehicle: saline with Tween-80", "value": "105 % of control"}, {"measurement": "T/C", "setting": "dose: 400.0 mg/kg/injection, schedule: Q04DX002 (ip), vehicle: saline with Tween-80", "value": "114 % of control"}]}
{"compound": "COc1cc(C)c2[nH]c3c(C)c(Cl)ccc3c(=O)c2c1", "values": [{"measurement": "T/C", "setting": "dose: 50.0 mg/kg/injection, schedule: Q01DX005 (ip), vehicle: Klucel + Tween-80", "value": "97 % of control"}, {"measurement": "T/C", "setting": "dose: 100.0 mg/kg/injection, schedule: Q01DX005 (ip), vehicle: Klucel + Tween-80", "value": "93 % of control"}, {"measurement": "T/C", "setting": "dose: 200.0 mg/kg/injection, schedule: Q01DX005 (ip), vehicle: Klucel + Tween-80", "value": "96 % of control"}]}
{"compound": "CCN(CC)CCN1C(=O)[C@H]2CC=CC[C@H]2C1=O", "values": [{"measurement": "T/C", "setting": "dose: 50.0 mg/kg/injection, schedule: Q01DX005 (ip), vehicle: saline", "value": "99 % of control"}, {"measurement": "T/C", "setting": "dose: 100.0 mg/kg/injection, schedule: Q01DX005 (ip), vehicle: saline", "value": "105 % of control"}, {"measurement": "T/C", "setting": "dose: 200.0 mg/kg/injection, schedule: Q01DX005 (ip), vehicle: saline", "value": "97 % of control"}]}
{"compound": "CN(C)c1nc(N)c(N=O)c(=O)[nH]1", "values": [{"measurement": "T/C", "setting": "dose: 12.5 mg/kg/injection, schedule: Q01DX009 (ip), vehicle: saline with Tween-80", "value": "104 % of control"}, {"measurement": "T/C", "setting": "dose: 25.0 mg/kg/injection, schedule: Q01DX009 (ip), vehicle: saline with Tween-80", "value": "94 % of control"}, {"measurement": "T/C", "setting": "[4]", "value": "94 % of control"}, {"measurement": "T/C", "setting": "dose: 50.0 mg/kg/injection, schedule: Q01DX009 (ip), vehicle: saline", "value": "87 % of control"}, {"measurement": "T/C", "setting": "dose: 50.0 mg/kg/injection, schedule: Q04DX003 (ip), vehicle: saline with Tween-80", "value": "94 % of control"}, {"measurement": "T/C", "setting": "[6]", "value": "93 % of control"}]}
{"compound": "CN(C)c1ccc2[nH]c3c(C(N)=O)cc(=O)c(=O)c=3oc2c1", "values": [{"measurement": "T/C", "setting": "[1]", "value": "100 % of control and 107 % of control"}, {"measurement": "T/C", "setting": "[2]", "value": "98 % of control and 100 % of control (2×)"}, {"measurement": "T/C", "setting": "[3]", "value": "100 % of control and 120 % of control and 97 % of control"}, {"measurement": "T/C", "setting": "[7]", "value": "98 % of control and 107 % of control and 117 % of control"}]}
{"compound": "C#CCOC(=O)Nc1nc2ccc(SC#N)cc2s1", "values": [{"measurement": "T/C", "setting": "dose: 12.5 mg/kg/injection, schedule: Q01DX009 (ip), vehicle: Klucel (hydroxypropylcellulose) (HPC)", "value": "104 % of control"}, {"measurement": "T/C", "setting": "dose: 25.0 mg/kg/injection, schedule: Q01DX009 (ip), vehicle: Klucel (hydroxypropylcellulose) (HPC)", "value": "107 % of control"}, {"measurement": "T/C", "setting": "dose: 50.0 mg/kg/injection, schedule: Q01DX009 (ip), vehicle: Klucel (hydroxypropylcellulose) (HPC)", "value": "107 % of control and 90 % of control"}]}
{"compound": "CS(=O)(=O)Nc1ccc(Nc2c3ccccc3nc3cc([N+](=O)[O-])ccc23)cc1", "values": [{"measurement": "T/C", "setting": "dose: 0.09 mg/kg/injection, schedule: Q01DX009 (ip), vehicle: saline with Tween-80", "value": "121 % of control"}, {"measurement": "T/C", "setting": "dose: 0.75 mg/kg/injection, schedule: Q01DX009 (ip), vehicle: saline with Tween-80", "value": "169 % of control"}, {"measurement": "T/C", "setting": "dose: 1.5 mg/kg/injection, schedule: Q01DX009 (ip), vehicle: saline with Tween-80", "value": "169 % of control"}, {"measurement": "T/C", "setting": "dose: 3.0 mg/kg/injection, schedule: Q01DX009 (ip), vehicle: saline with Tween-80", "value": "177 % of control"}]}
{"compound": "c1ccc(N=C2N=c3ccccc3=C2c2c(Nc3ccccc3)[nH]c3ccccc23)cc1", "values": [{"measurement": "T/C", "setting": "[2]", "value": "89 % of control"}, {"measurement": "T/C", "setting": "[3]", "value": "90 % of control"}, {"measurement": "T/C", "setting": "[7]", "value": "92 % of control"}]}
{"compound": "CC(=O)ON=C1C=CC(=C(C#N)c2ccccc2)C=C1", "values": [{"measurement": "T/C", "setting": "[4]", "value": "104 % of control"}, {"measurement": "T/C", "setting": "[5]", "value": "122 % of control"}]}
{"compound": "COc1ccc(C(=O)CC(C(=O)O)c2ccc(OC)cc2)cc1", "note": "(stereo unspecified)", "values": [{"measurement": "T/C", "setting": "[6]", "value": "102 % of control"}, {"measurement": "T/C", "setting": "dose: 200.0 mg/kg/injection, schedule: Q04DX003 (ip), vehicle: saline with Tween-80", "value": "94 % of control"}, {"measurement": "T/C", "setting": "dose: 400.0 mg/kg/injection, schedule: Q04DX003 (ip), vehicle: saline with Tween-80", "value": "99 % of control"}]}
